Test results reported in patent US5158770A, “Aqueous solution containing ginkgo leaf extract” (Freund Industrial Co., Ltd., priority 1989, dated 1992).
In brackets after ≈: the same amount, converted by molar mass. Structures can show the parent of a compound that is named as a salt.

Experiment: Solubility of the organic/inorganic compound in water
Settings: not given

| solubility | SMILES |
| --- | --- |
| 500 mg/mL (≈ 4090 mM) | NC(=O)c1cccnc1 [Nicotinic acid amide] |
| 1000 mg/mL | Cc1ncc(C[n+]2csc(CCO)c2C)c(N)n1 [Thiamine hydrochloride] |
| 33 mg/mL (≈ 221 mM) | CSCC[C@H](N)C(=O)O [Methionine] |
| 0.1 mg/mL (≈ 0.266 mM) | Cc1cc2nc3c(=O)[nH]c(=O)nc-3n(C[C@H](O)[C@H](O)[C@H](O)CO)c2cc1C [Riboflavin] |
| 420 mg/mL | Cl.N[C@@H](Cc1c[nH]cn1)C(=O)O [Histidine hydrochloride] |

| SMILES | solubility |
| --- | --- |
| O=C(O)c1cccnc1 [Nicotinic acid] | 16 mg/mL (≈ 130 mM) |
| OC[C@@H](O)[C@@H](O)[C@H](O)[C@@H](O)CO [Sorbitol] | 720 mg/mL (≈ 3950 mM) |

Experiment: Solubility Test-1: dissolution of ginkgo leaf extract dry powder in aqueous solution of the compound
Format: physicochemical
Design: key: .largecircle.: dissolved to form a transparent aqueous solution; X: insoluble
Settings: 5 g compound in 100 ml water at 20° C., 10 g ginkgo leaf extract, shaken 10 minutes
Procedure: To each aqueous solution was added 10 g of dry powder of the ginkgo leaf extract and shaken for 10 minutes to observe the dissolution state.

| Dissolution state | SMILES |
| --- | --- |
| .largecircle. | Cc1ncc(CO)c(CO)c1O.Cl [Pyridoxine hydrochloride] |
| .largecircle. | C[C@@H](O)[C@H](N)C(=O)O [Threonine] |
| .largecircle. | NC(=O)c1cccnc1 [Nicotinic acid amide] |
| X | OCC(O)CO [Glycerin] |
| X | OC[C@H]1O[C@@](CO)(O[C@H]2O[C@H](CO)[C@@H](O)[C@H](O)[C@H]2O)[C@@H](O)[C@@H]1O [Sucrose] |
| .largecircle. | CC(C)(CO)[C@@H](O)C(=O)NCCC(=O)O [Calcium pantothenate] |
| .largecircle. | Cc1ncc(C[n+]2csc(CCO)c2C)c(N)n1 [Thiamine hydrochloride] |
| X | CSCC[C@H](N)C(=O)O [Methionine] |
| .largecircle. | NC(N)=O [Urea] |
| X | Cc1cc2nc3c(=O)[nH]c(=O)nc-3n(C[C@H](O)[C@H](O)[C@H](O)CO)c2cc1C [Riboflavin] |

| SMILES | Dissolution state |
| --- | --- |
| O=C(O)c1cccnc1 [Nicotinic acid] | X |
| CCCCCCCCCCCC[N+](C)(C)C.[Cl-] [Lauryltrimethylammonium chloride, Lauryltrimethyl-ammonium chloride] | .largecircle. |
| N#CN=C(N)N [Dicyandiamide] | X |
| OC[C@@H](O)[C@@H](O)[C@H](O)[C@@H](O)CO [Sorbitol] | X |

Experiment: physchem
Settings: water

| solubility | SMILES |
| --- | --- |
| 190 mg/mL | Cc1ncc(CO)c(CO)c1O.Cl [Pyridoxine hydrochloride] |
| 625 mg/mL (≈ 4960 mM) | Oc1cccc(O)c1O [Pyrogallol] |
| 38 mg/mL (≈ 290 mM) | CC[C@H](C)[C@H](N)C(=O)O [Isoleucine] |
| 664 mg/mL (≈ 1940 mM) | OC[C@H]1O[C@@](CO)(O[C@H]2O[C@H](CO)[C@@H](O)[C@H](O)[C@H]2O)[C@@H](O)[C@@H]1O [Sucrose] |
| 85 mg/mL (≈ 726 mM) | CC(C)[C@H](N)C(=O)O [Valine] |
| 90 mg/mL (≈ 719 mM) | NCCS(=O)(=O)O [Taurine] |

| SMILES | solubility |
| --- | --- |
| CCCCCCCCCCCC[N+](C)(C)C.[Cl-] [Lauryltrimethylammonium chloride, Lauryltrimethyl-ammonium chloride] | 760 mg/mL |
| N#CN=C(N)N [Dicyandiamide] | 32 mg/mL (≈ 381 mM) |
